ChEMBL document CHEMBL1201862, “PubChem BioAssay data set” (2004)
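Briefly, cells in 96-well plates were exposed to five compound concentrations for 48 h, and endpoints were estimated by linear interpolation. At the GI50, growth is halved.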 Active and inactive are the calls of the source. Rule as the data show it: active = GI50 up to about 1.1 µM and inactive = higher.

What was measured:
Test in all cases: inhibition of tumour cell growth, NCI panel, 48 h
[1] = tested on: NCI-H23
[2] = tested on: NCI-H460
[3] = tested on: DU-145
[4] = tested on: SK-OV-3
[5] = tested on: SW-620
[6] = tested on: HT-29
[7] = tested on: TK-10
[8] = tested on: UACC-62
[9] = tested on: SF-268
[10] = tested on: RXF 393
[11] = tested on: MDA-N
[12] = tested on: SR
[13] = tested on: 786-0
[14] = tested on: HCT-15
[15] = tested on: HCC 2998
[16] = tested on: SN12C
[17] = tested on: PC-3
[18] = tested on: A498
[19] = tested on: T47D
[20] = tested on: HOP-92
[21] = tested on: OVCAR-4
[22] = tested on: COLO 205
[23] = tested on: NCI/ADR-RES
[24] = tested on: ACHN
[25] = tested on: RPMI-8226
[26] = tested on: SF-295
[27] = tested on: SK-MEL-2
[28] = tested on: SNB-19
[29] = tested on: OVCAR-3
[30] = tested on: SF-539
[31] = tested on: OVCAR-5
[32] = tested on: EKVX
[33] = tested on: SK-MEL-28
[34] = tested on: U-251
[35] = tested on: CAKI-1
[36] = tested on: K562
[37] = tested on: HCT-116
[38] = tested on: MDA-MB-231
[39] = tested on: Malme-3M
[40] = tested on: M14
[41] = tested on: KM12
[42] = tested on: SNB-75
[43] = tested on: HL-60
[44] = tested on: OVCAR-8
[45] = tested on: A549
[46] = tested on: MDA-MB-435
[47] = tested on: UACC-257
[48] = tested on: Hs-578T
[49] = tested on: BT-549
[50] = tested on: CCRF-CEM
[51] = tested on: LOX IMVI
[52] = tested on: IGROV-1
[53] = tested on: UO-31
[54] = tested on: HOP-62
[55] = tested on: MCF7
[56] = tested on: SK-MEL-5
[57] = tested on: MOLT-4
[58] = tested on: NCI-H522
[59] = tested on: NCI-H226

Measured: GI50

CN(CCNCc1cn(C)c2c1ccc1ccccc12)CCNCc1cn(C)c2c1ccc1ccccc12
1460 nM: [14]
active: [2] 583 nM | [10] 499 nM | [12] 1040 nM | [13] 881 nM | [15] 301 nM | [18] 188 nM | [22] 948 nM | [34] 900 nM | [36] 458 nM | [40] 726 nM | [43] 1060 nM | [50] 711 nM | [55] 333 nM | [57] 1090 nM
inactive: [1] 1640 nM | [3] 1640 nM | [4] 1760 nM | [5] 1350 nM | [6] 1610 nM | [7] 1640 nM | [8] 1670 nM | [9] 1580 nM | [11] 1770 nM | [16] 1560 nM | [17] 1470 nM | [19] 1860 nM | [20] 1600 nM | [21] 1330 nM | [23] 1540 nM | [24] 1630 nM | [25] 2840 nM | [26] 1790 nM | [27] 1790 nM | [28] 1390 nM | [29] 1840 nM | [30] 1770 nM | [31] 1740 nM | [32] 1720 nM | [33] 1430 nM | [35] 1730 nM | [37] 1450 nM | [38] 1790 nM | [39] 1870 nM | [41] 1510 nM | [42] 1210 nM | [44] 1850 nM | [45] 1450 nM | [46] 1780 nM | [47] 1550 nM | [48] 1640 nM | [49] 1570 nM | [51] 1520 nM | [52] 1600 nM | [53] 1390 nM | [54] 1790 nM | [56] 1870 nM | [58] 1770 nM

CC(C)(O)CO/N=C1\C(=C2\C(=O)Nc3ccccc32)Nc2ccccc21
324 nM: [14]
inactive: [1] 1180 nM | [6] 1750 nM | [9] 2330 nM | [11] 12200 nM | [13] 10700 nM | [16] 12000 nM | [20] 3480 nM | [21] 2940 nM | [23] 1330 nM | [25] 1970 nM | [26] 2520 nM | [28] 4240 nM | [29] 1320 nM | [30] 2710 nM | [31] 2610 nM | [32] 1650 nM | [33] 2380 nM | [34] 2380 nM | [36] 5860 nM | [37] 6280 nM | [38] 2010 nM | [39] 4300 nM | [44] 1150 nM | [47] 4490 nM | [49] 1820 nM | [54] 2100 nM | [55] 1390 nM | [58] 1870 nM
active: [2] 395 nM | [3] 476 nM | [4] 158 nM | [5] 811 nM | [7] 601 nM | [8] 728 nM | [10] 279 nM | [12] 594 nM | [15] 991 nM | [17] 883 nM | [18] 187 nM | [19] 631 nM | [22] 615 nM | [24] 426 nM | [27] 232 nM | [35] 112 nM | [40] 474 nM | [41] < 10 nM | [42] 811 nM | [43] 740 nM | [45] 724 nM | [46] 794 nM | [48] 867 nM | [50] 435 nM | [51] 583 nM | [52] 89.5 nM | [53] 348 nM | [56] 423 nM | [57] 944 nM

CN(NC(=O)CCCl)C1=NCCCCN1
inactive: [59] > 100000 nM | [1] > 100000 nM | [2] > 100000 nM | [3] > 100000 nM | [4] > 100000 nM | [5] > 100000 nM | [6] > 100000 nM | [7] > 100000 nM | [8] > 100000 nM | [9] > 100000 nM | [10] > 100000 nM | [11] > 100000 nM | [12] > 100000 nM | [13] > 100000 nM | [15] > 100000 nM | [16] > 100000 nM | [17] > 100000 nM | [18] > 100000 nM | [19] > 100000 nM | [20] > 100000 nM | [21] > 100000 nM | [22] > 100000 nM | [23] > 100000 nM | [24] > 100000 nM | [25] > 100000 nM | [26] > 100000 nM | [27] > 100000 nM | [28] > 100000 nM | [29] > 100000 nM | [30] > 100000 nM | [31] > 100000 nM | [32] > 100000 nM | [33] > 100000 nM | [34] > 100000 nM | [36] > 100000 nM | [37] > 100000 nM | [38] > 100000 nM | [39] > 100000 nM | [40] > 100000 nM | [41] > 100000 nM | [42] > 100000 nM | [43] > 100000 nM | [44] > 100000 nM | [45] > 100000 nM | [46] > 100000 nM | [47] > 100000 nM | [48] > 100000 nM | [49] > 100000 nM | [50] > 100000 nM | [51] > 100000 nM | [52] > 100000 nM | [53] > 100000 nM | [54] > 100000 nM | [55] > 100000 nM | [56] > 100000 nM | [57] > 100000 nM | [58] > 100000 nM
> 100000 nM: [14]
